Experimental data from US9125947B2, “Phenylethanoic acid, phenylpropanoic acid and phenylpropenoic acid conjugates and prodrugs of hydrocodone, method of making and use thereof” (KemPharm, Inc., priority 2009, dated 2015).

Legend:
[1] = Chemical stability: hydrolysis in 5% NaHCO3; type: physicochemical; settings: 5% NaHCO3, one hour; for initial amount of conjugate hydrolyzed, 5% NaHCO3 ambient: ambient temperature (~20° C.); for initial amount of conjugate hydrolyzed, 5% NaHCO3 100° C.: oil bath at 100° C.
[2] = Chemical stability: hydrolysis to hydrocodone in 1 N hydrochloric acid; settings: 1 hour; for initial amount of conjugate hydrolyzed, 1N HCl ambient: ambient temperature (~20° C.); for initial amount of conjugate hydrolyzed, 1N HCl 100° C.: oil bath at 100° C.
[3] = Intranasal PK in rats, Ibu-HC vs Adipate-HC (Example 3); settings: equivalent to 2 mg/kg freebase hydrocodone
[4] = Water solubility / ability to be dosed in solution (Example 4)
[5] = Intranasal PK in rats, Ibu-HC vs Hydrocodone BT (Example 6); type: in vivo
Source text: The intranasal profiles of Ibu-HC were compared to the unconjugated drug Hydrocodone•BT by administering to rats intranasally and measuring the plasma concentration of hydrocodone or hydromorphone over time.

[6] = Oral PK in rats, Ibu-HC and Cinnamate-HC vs Hydrocodone BT (Example 5)

SMILES | initial amount of conjugate hydrolyzed, 5% NaHCO3 ambient [1] [%] | initial amount of conjugate hydrolyzed, 5% NaHCO3 100° C. [1] [%] | initial amount of conjugate hydrolyzed, 1N HCl ambient [2] [%] | initial amount of conjugate hydrolyzed, 1N HCl 100° C. [2] [%] | water solubility [4] | further results
COc1ccc2cc(C(C)C(=O)OC3=CCC4C5Cc6ccc(OC)c7c6C4(CCN5C)C3O7)ccc2c1 (stereo not shown) [Naproxen-HC, naproxen-hydrocodone] | 0 | 8 | 0 | 33 | – | –
COc1ccc2c3c1OC1C(OC(=O)CCCCC(=O)O)=CC[C@H]4[C@@H](C2)N(C)CC[C@]314 (stereo partly shown) [Adipate-HC, reference compound] | 3 | 100 | 13 | 100 | water-soluble | hydromorphone AUC, higher than Ibu-HC ([3]; hydromorphone in plasma, relative to Ibu-HC): approximately 940%; hydrocodone AUC, higher than Ibu-HC ([3]; released hydrocodone in plasma, relative to Ibu-HC): approximately 170%
COc1ccc2c3c1OC1C(OC(=O)COCC(=O)O)=CC[C@H]4[C@@H](C2)N(C)CC[C@]314 (stereo partly shown) [Diglycolate-HC] | – | – | – | – | water-soluble | –
COc1ccc2c3c1O[C@H]1C(=O)CC[C@H]4[C@@H](C2)N(C)CC[C@]314.O=C(O)C(O)C(O)C(=O)O [Hydrocodone•BT, hydrocodone bitartrate, reference compound] | – | – | – | – | – | hydrocodone AUC, higher than Ibu-HC ([5]; hydrocodone in plasma, relative to Ibu-HC): approximately 300%
COc1ccc2c3c1OC1C(OC(=O)C(C)c4ccc(CC(C)C)cc4)=CCC4C(C2)N(C)CCC314 (stereo not shown) [Ibu-HC, ibuprofen-hydrocodone] | 0 | 22 | – | – | very low water solubility | hydrocodone plasma concentrations compared with Hydrocodone•BT [5]: significantly lower; plasma concentration of hydromorphone compared with Hydrocodone•BT [5]: very low; hydrocodone plasma concentrations compared with Adipate-HC [3]: significantly lower; plasma concentration of hydromorphone compared with Adipate-HC [3]: very low; hydrocodone and hydromorphone plasma concentrations compared with unconjugated Hydrocodone•BT ([6]; equivalent to 2 mg/kg freebase hydrocodone): similar; AUC and Cmax values (hydrocodone and hydromorphone) compared with Hydrocodone•BT ([6]; same dose based on hydrocodone freebase (2 mg/kg)): within the range of bioequivalence
